Reference: publication PMC3322948, “Phase I first-in-human study of TAK-285, a novel investigational dual HER2/EGFR inhibitor, in cancer patients” (British Journal of Cancer, 2012)
Read-outs that look alike come from different tables or passages of the source.

Experiments:
[1] = Urinary excretion after oral TAK-285; type: in vivo, human (Japanese patients); conditions: up to 12- or 24-h postdose following single or multiple dosing
Procedure: (§1) In the dose escalation cohort, plasma samples for PK analysis were collected at predose and up to 72 h after single dose administration and on day 21 after repeated administration of TAK-285. Urine samples were also collected up to 24-h postdose. In the repeated administration cohort, plasma samples for PK analysis were collected at predose and up to 12-h postdose on days 1 and 28. Urine samples were also collected up to 12-h postdose each day. Concentrations of TAK-285 and M-I in plasma and urine were determined using validated liquid chromatography tandem mass spectrometry (LC-MS/MS) methods. The plasma and urine samples were treated by liquid–liquid extraction and subjected to LC-MS/MS equipped with a reversed-phase column. The lower limit of quantification for both TAK-285 and M-I was 0.2 ng ml^–1 in plasma and 2 ng ml^–1 in urine when 50 μl of the plasma sample and 55 μl of the urine sample (containing 5 μl of Tween 80 solution) were analysed. Tween 80 solution was added to the urine sample to prevent the adsorption of analytes onto the sample containers. The accuracy of the plasma assay (percentage deviation from nominal) ranged from −10.8 to 11.0% for TAK-285, and from −14.0 to 13.8% for M-I. […] Pharmacokinetic parameters of TAK-285 and M-I were estimated for each patient using noncompartmental methods with Phoenix WinNonlin Version 6.1 (Pharsight, Mountain View, CA, USA).

[2] = tested on: circulating tumour cells; test: Circulating tumour cell enumeration (CellSearch); type: in vivo, human (Japanese patients)
Procedure: At screening and on day 15 after the start of repeated administration, 20 ml of peripheral blood was obtained and divided into two 10 ml exclusive use containers (CellSave tubes) filled with 300 μl of preservative solution (4.6% Na-ethylenediaminetetraacetate, 36% cell preservative, 0.36% polyethylene glycol and 0.4% inert ingredients). The samples were stored at room temperature and processed within 72 h after sampling. The CellSearch System (Veridex LLC, Raritan, NJ, USA) was used for the isolation and enumeration of circulating tumour cells (CTCs), which were defined as nucleated cells lacking cluster of differentiation 45 and expressing cytokeratin.

[3] = tested on: HER2; conditions: biochemical; ref Aertgeerts et al, 2011; read-out: 50% inhibition concentration, HER2 phosphorylation; cited from earlier work
[4] = tested on: solid tumours; test: Antitumour activity by RECIST in patients; type: in vivo, human (Japanese patients)
Procedure: The primary study endpoints were to determine the MTD as well as PK profiles of TAK-285 and its metabolite, M-I (data on file, Takeda Pharmaceutical Company Limited). The secondary endpoints were objective response rate (complete response (CR) and partial response (PR)), disease control rate (CR, PR and stable disease (SD), for at least 12 weeks), and time to tumour progression, defined as the time from the first dose of TAK-285 until disease progression or death. Tumour response was assessed every 4 weeks by RECIST version 1.0 ([Therasse et al, 2000]).

[5] = tested on: EGFR; conditions: biochemical; ref Aertgeerts et al, 2011; read-out: 50% inhibition concentration, EGFR phosphorylation; cited from earlier work
[6] = rodent and primate; non-clinical studies; cited from earlier work
[7] = Plasma pharmacokinetics after oral TAK-285 (LC-MS/MS, noncompartmental); type: in vivo, human (Japanese patients); conditions: for Cmax / half-life / Tmax / AUC(0-inf) / AUC: human, plasma, oral; for Tmax: median (range); for AUC: read-out: AUC0–tau
Procedure: as §1

[8] = tested on: HER2- or EGFR-overexpressing human tumour xenografts such as BT-474, 4-1 ST and A431; design: method as in Iwahara et al, 2008; conditions: orally administered; ref Iwahara et al, 2008; cited from earlier work
[9] = design: method as in Shell et al, 2008; conditions: non-clinical; ref Shell et al, 2008; cited from earlier work
[10] = 50 mg, single dosing, 50 mg b.i.d., dose escalation cohort, mean (s.d.)
[11] = 50 mg, single dosing, 50 mg q.d., dose escalation cohort, mean (s.d.)
[12] = 100 mg, single dosing, 100 mg b.i.d., dose escalation cohort, mean (s.d.)
[13] = 200 mg, single dosing, 200 mg b.i.d., dose escalation cohort, mean (s.d.)
[14] = 300 mg, single dosing, 300 mg b.i.d., repeated administration cohort, mean (s.d.)
[15] = multiple versus single dosing, across doses

CC(C)(O)CC(=O)NCCn1ccc2ncnc(Nc3ccc(Oc4cccc(C(F)(F)F)c4)c(Cl)c3)c21 [TAK-285]
circulating tumour cell (CTC) changes after treatment ([2]; screening versus cycle 1 day 15): did not show significant changes
patients with unfavourable baseline CTC count converted to favourable ([2]; seven patients with ⩾5 cells per 7.5 ml blood at baseline): none
IC50 [3]: 17 nM
disease control rate ([4]; 1 of 26 patients): 3.8%
objective response rate ([4]; 1 of 26 patients): 3.8%
median time to tumour progression ([4]; 26 patients): 58 days
patients showing reduction in tumour size ([4]; dose escalation cohort): one
patients achieving partial response (PR), percent ([4]; of 26 patients): 3.8%
patients achieving partial response (PR), number ([4]; parotid cancer, 300 mg b.i.d.): One
patients showing reduction in tumour size ([4]; repeated administration cohort, of six patients): three
tolerability in toxicity models [6]: well tolerated
Cmax ([7]; 50 mg b.i.d., multiple dosing day 21, 50 mg b.i.d., dose escalation cohort, mean (s.d.)): 358 ng/mL
half-life ([7]; 50 mg b.i.d., multiple dosing day 21, 50 mg b.i.d., dose escalation cohort, mean (s.d.), read-out: t1/2 (converted)): 7.49 h
Tmax ([7]; 50 mg b.i.d., multiple dosing day 21, 50 mg b.i.d., dose escalation cohort): 2.05 h
Cmax ([7]; 50 mg q.d., multiple dosing day 21, 50 mg q.d., dose escalation cohort, mean (s.d.)): 260 ng/mL
half-life ([7]; 50 mg q.d., multiple dosing day 21, 50 mg q.d., dose escalation cohort, mean (s.d.), read-out: t1/2 (converted)): 8.69 h
Tmax ([7]; 50 mg q.d., multiple dosing day 21, 50 mg q.d., dose escalation cohort): 2 h
AUC(0-inf) [7, 10]: 1970 ng·h/mL
Cmax [7, 10]: 234 ng/mL
half-life ([7]; 50 mg, single dosing, 50 mg b.i.d., dose escalation cohort, mean (s.d.), read-out: t1/2 (converted)): 6.45 h
Tmax ([7]; 50 mg, single dosing, 50 mg b.i.d., dose escalation cohort): 1 h
AUC(0-inf) [7, 11]: 1730 ng·h/mL
Cmax [7, 11]: 214 ng/mL
half-life ([7]; 50 mg, single dosing, 50 mg q.d., dose escalation cohort, mean (s.d.), read-out: t1/2 (converted)): 7.27 h
Tmax ([7]; 50 mg, single dosing, 50 mg q.d., dose escalation cohort): 1.49 h
Cmax ([7]; 100 mg b.i.d., multiple dosing day 21, 100 mg b.i.d., dose escalation cohort, mean (s.d.)): 774 ng/mL
half-life ([7]; 100 mg b.i.d., multiple dosing day 21, 100 mg b.i.d., dose escalation cohort, mean (s.d.), read-out: t1/2 (converted)): 7.79 h
Tmax ([7]; 100 mg b.i.d., multiple dosing day 21, 100 mg b.i.d., dose escalation cohort): 2 h
AUC(0-inf) [7, 12]: 2820 ng·h/mL
Cmax [7, 12]: 379 ng/mL
half-life ([7]; 100 mg, single dosing, 100 mg b.i.d., dose escalation cohort, mean (s.d.), read-out: t1/2 (converted)): 9.43 h
Tmax ([7]; 100 mg, single dosing, 100 mg b.i.d., dose escalation cohort): 2 h
Cmax ([7]; 200 mg b.i.d., multiple dosing day 21, 200 mg b.i.d., dose escalation cohort, mean (s.d.)): 2420 ng/mL
half-life ([7]; 200 mg b.i.d., multiple dosing day 21, 200 mg b.i.d., dose escalation cohort, mean (s.d.), read-out: t1/2 (converted)): 6.95 h
Tmax ([7]; 200 mg b.i.d., multiple dosing day 21, 200 mg b.i.d., dose escalation cohort): 2 h
AUC(0-inf) [7, 13]: 9530 ng·h/mL
Cmax [7, 13]: 965 ng/mL
half-life ([7]; 200 mg, single dosing, 200 mg b.i.d., dose escalation cohort, mean (s.d.), read-out: t1/2 (converted)): 6.57 h
Tmax ([7]; 200 mg, single dosing, 200 mg b.i.d., dose escalation cohort): 2.48 h
Cmax ([7]; 300 mg b.i.d., multiple dosing day 21, 300 mg b.i.d., dose escalation cohort, mean (s.d.)): 3700 ng/mL
half-life ([7]; 300 mg b.i.d., multiple dosing day 21, 300 mg b.i.d., dose escalation cohort, mean (s.d.), read-out: t1/2 (converted)): 8.25 h
Tmax ([7]; 300 mg b.i.d., multiple dosing day 21, 300 mg b.i.d., dose escalation cohort): 2 h
Cmax ([7]; 300 mg, multiple dosing day 28, 300 mg b.i.d., repeated administration cohort, mean (s.d.)): 2810 ng/mL
half-life ([7]; 300 mg, multiple dosing day 28, 300 mg b.i.d., repeated administration cohort, mean (s.d.), read-out: t1/2 (converted)): 11.1 h
Tmax ([7]; 300 mg, multiple dosing day 28, 300 mg b.i.d., repeated administration cohort): 2.97 h
Cmax ([7]; 300 mg, single dosing, 300 mg b.i.d., dose escalation cohort, mean (s.d.)): 1350 ng/mL
half-life ([7]; 300 mg, single dosing, 300 mg b.i.d., dose escalation cohort, mean (s.d.), read-out: t1/2 (converted)): 7.5 h
Tmax ([7]; 300 mg, single dosing, 300 mg b.i.d., dose escalation cohort): 2 h
AUC(0-inf) [7, 14]: 9210 ng·h/mL
Cmax [7, 14]: 983 ng/mL
half-life ([7]; 300 mg, single dosing, 300 mg b.i.d., repeated administration cohort, mean (s.d.), read-out: t1/2 (converted)): 6.1 h
Tmax ([7]; 300 mg, single dosing, 300 mg b.i.d., repeated administration cohort): 2.03 h
half-life ([7]; at all doses, single dose, read-out: estimated terminal-phase half-life (t1/2)): 6 to 9 h
AUC ([7]; multiple dosing day 21, 50 mg b.i.d., dose escalation cohort, mean (s.d.)): 2720 ng·h/mL
AUC ([7]; multiple dosing day 21, 50 mg q.d., dose escalation cohort, mean (s.d.)): 2210 ng·h/mL
AUC ([7]; multiple dosing day 21, 100 mg b.i.d., dose escalation cohort, mean (s.d.)): 6090 ng·h/mL
xenograft growth [8]: effectively inhibited xenograft growth
cardiac risks [9]: potentially no exhibition of elevated cardiac risks
